EP4755888A1 (ILAb Co., Ltd., priority 2023, dated 2025)

Molecular target: PD-1/PD-L1 (Homo sapiens, UniProt Q9NZQ7)
Test: TR-FRET PD-1/PD-L1 binding inhibition at the molecular level (free proteins)
Details: Tag1-PD-L1 and Tag2-PD-1 proteins, twelve concentrations from 200 nM, 2 hours at room temperature, read-out: FRET assay (IC50)
Description: In order to evaluate the inhibitory activity of the compounds synthesized according to the above Preparation Examples against PD-1/PD-L1 molecules in a free protein state,a TR-FRET (Time-Resolved Fluorescence Energy Transfer) experimetn was performed as described below.
Specifically, the compounds were prepared in a 96-well plate by serial dilution starting from 200 nM with 1/2 dilutions to obtain a total of twelve concentrations, and 2 µL of each compound solution was added to a 384-well plate. Thereafter, Tag1-PD-L1 protein and Tag2-PD-1 protein were each prepared at a 1x concentration, mixed at a ratio of 1:1, and 8 µL of the mixed solution was added to each well of the 384-well plate containing the compounds. Anti-Tag1 Eu Cryptate reagent and Anti-Tag2 XL665 antibody were each prepared at a 1* concentration, mixed at a ratio of 1:1, and 10 µL of the mixed solution was added to each well of the 384-well plate containing the compounds and proteins, followed by incubation at room temperature for 2 hours. Upon completion of the reaction, fluorescence signals at wavelengths of 620 nm and 665 nm were measured using a microplate reader.

PD-1/PD-L1, sequence (Q9NZQ7 19-238 limits assumed): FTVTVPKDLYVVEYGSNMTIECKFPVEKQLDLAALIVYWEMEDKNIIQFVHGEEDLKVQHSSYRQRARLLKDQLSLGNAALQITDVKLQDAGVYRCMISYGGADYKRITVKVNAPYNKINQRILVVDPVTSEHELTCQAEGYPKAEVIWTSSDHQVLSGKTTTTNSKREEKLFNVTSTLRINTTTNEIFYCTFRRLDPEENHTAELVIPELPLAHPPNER

Row | IC50 [nM] | SMILES
1 | 10 to 100 | Cc1c(Nc2nccc3cc(CN4CC[C@@H](O)C4)cnc23)cccc1-c1cccc(NC(=O)c2cc3n(n2)CCCC3N2CCC(O)CC2)c1Cl (stereo partly drawn) [Compound 34, N-(2-chloro-3'-((3-(((R)-3-hydroxypyrrolidin-1-yl)methyl)-1,7-naphthyridin-8-yl)amino)-2'-methyl-[1,1'-biphenyl]-3-yl)-4-(4-hydroxypiperidin-1-yl)-4,5,6,7-tetrahydropyrazolo[1,5-a]pyridine-2-carboxamide]
2 | 10 to 100 | Cc1c(Nc2nccc3cc(CN4CC[C@@H](O)C4)cnc23)cccc1-c1cccc(NC(=O)c2cc3n(n2)CCCC3O)c1Cl (stereo partly drawn) [Compound 36, N-(2-chloro-3'-((3-(((R)-3-hydroxypyrrolidin-1-yl)methyl)-1,7-naphthyridin-8-yl)amino)-2'-methyl-[1,1'-biphenyl]-3-yl)-4-hydroxy-4,5,6,7-tetrahydropyrazolo[1,5-a]pyridine-2-carboxamide]
3 | < 10 | Cc1c(NC(=O)c2cc3n(n2)CCCC3NCCO)cccc1-c1cccc(Nc2nccc3cc(CN4CC[C@@H](O)C4)cnc23)c1Cl (stereo partly drawn) [Compound 37, N-(2'-chloro-3'-((3-(((R)-3-hydroxypyrrolidin-1-yl)methyl)-1,7-naphthyridin-8-yl)amino)-2-methyl-[1,1'-biphenyl]-3-yl)-4-((2-hydroxyethyl)amino)-4,5,6,7-tetrahydropyrazolo[1,5-a]pyridine-2-carboxamide]
4 | 10 to 100 | Cc1c(NC(=O)c2cc3n(n2)CCCC3N2CC[C@@H](O)C2)cccc1-c1cccc(Nc2nccc3cc(CN4CC[C@@H](O)C4)cnc23)c1Cl (stereo partly drawn) [Compound 38, N-(2'-chloro-3'-((3-(((R)-3-hydroxypyrrolidin-1-yl)methyl)-1,7-naphthyridin-8-yl)amino)-2-methyl-[1,1'-biphenyl]-3-yl)-4-((R)-3-hydroxypyrrolidin-1-yl)-4,5,6,7-tetrahydropyrazolo[1,5-a]pyridine-2-carboxamide]
5 | < 10 | CC(=O)NCCNC1CCCn2nc(C(=O)Nc3cccc(-c4cccc(Nc5nccc6cc(CN7CC[C@@H](O)C7)cnc56)c4Cl)c3C)cc21 (stereo partly drawn) [Compound 39, 4-((2-acetamidoethyl)amino)-N-(2'-chloro-3'-((3-(((R)-3-hydroxypyrrolidin-1-yl)methyl)-1,7-naphthyridin-8-yl)amino)-2-methyl-[1,1'-biphenyl]-3-yl)-4,5,6,7-tetrahydropyrazolo[1,5-a]pyridine-2-carboxamide]
6 | 10 to 100 | Cc1c(NC(=O)c2cc3n(n2)CCCC3NC[C@@H]2CCC(=O)N2)cccc1-c1cccc(Nc2nccc3cc(CN4CC[C@@H](O)C4)cnc23)c1Cl (stereo partly drawn) [Compound 40, N-(2'-chloro-3'-((3-(((R)-3-hydroxypyrrolidin-1-yl)methyl)-1,7-naphthyridin-8-yl)amino)-2-methyl-[1,1'-biphenyl]-3-yl)-4-((((S)-5-oxopyrrolidin-2-yl)methyl)amino)-4,5,6,7-tetrahydropyrazolo[1,5-a]pyridine-2-carboxamide]
7 | < 10 | Cc1c(NC(=O)c2cc3n(n2)CCCC3NCC(=O)O)cccc1-c1cccc(Nc2nccc3cc(CN4CC[C@@H](O)C4)cnc23)c1Cl (stereo partly drawn) [Compound 41, 2-((2-((2'-chloro-3'-((3-(((R)-3-hydroxypyrrolidin-1-yl)methyl)-1,7-naphthyridin-8-yl)amino)-2-methyl-[1,1'-biphenyl]-3-yl)carbamoyl)-4,5,6,7-tetrahydropyrazolo[1,5-a]pyridin-4-yl)amino)acetic acid]

Row | SMILES | IC50 [nM]
8 | Cc1c(Nc2nccc3cc(CN4CC[C@@H](O)C4)cnc23)cccc1-c1cccc(NC(=O)c2cc3n(n2)CCCC3N2CCC(C(=O)O)CC2)c1Cl (stereo partly drawn) [Compound 35, 1-(2-((2-chloro-3'-((3-(((R)-3-hydroxypyrrolidin-1-yl)methyl)-1,7-naphthyridin-8-yl)amino)-2'-methyl-[1,1'-biphenyl]-3-yl)carbamoyl)-4,5,6,7-tetrahydropyrazolo[1,5-a]pyridin-4-yl)piperidine-4-carboxylic acid] | < 10
